In general, melting point refers to the temperature, or range, at which the solid turns liquid.

Data on 111 compounds can be found in a melting point compilation (Tetko et al.).

Molecules are shown by their SMILES.

As to `COc1ccc(Br)c(C)c1C(=O)O`, the melting point is 163 °C.

In turn, `Cn1ccc2cc(S(=O)(=O)Cl)ccc21` returned a melting point of 79 to 80 °C.

In turn, `O=C(Cl)c1cc(-c2ccccc2)on1` gave a melting point of 86 to 88 °C.

In turn, `N=C(NCCCC(N)C(=O)O)N[N+](=O)[O-]` (stereo unspecified) returned a melting point of 257 °C.

Compound `O=C(O)Cc1cc(F)ccc1F` gave a melting point of 125 °C.

The compound `CC(=O)N1C(=O)Cc2cc3c(cc21)N(C(C)=O)C(=O)C3` had a melting point of 295 °C.

Compound `O=C(c1ccccc1)c1cc(C(=O)c2ccccc2)c([N+](=O)[O-])cc1[N+](=O)[O-]` yielded a melting point of 174 °C.

The compound `O=S(=O)(Cl)c1cc(F)c(Br)cc1F` showed a melting point of 35 °C.

On to `Clc1nccc2sccc12`, for which the melting point came to 99 °C.

In the case of `Cc1ccc2cccc(C)c2c1`, the melting point was -13.9 °C.

`O=C(O)COc1cccc([N+](=O)[O-])c1` gave a melting point of 156 to 161 °C.

In the case of `CCCCCCc1ccc(C(=O)O)cc1`, the melting point was 94 to 99 °C.

In turn, `Nc1ccccc1CCc1ccccc1N` showed a melting point of 72 to 77 °C.

As to `O=[N+]([O-])C(CO)(CO)CO`, the melting point was determined as 214 °C.

In the case of `NC(=O)NCCC[C@H](N)C(=O)O`, the melting point came out at 236 °C.

`Cc1ccccc1S`: the melting point was found to be 15 °C.

`CC[C@H](C)[C@H](NC(=O)OCc1ccccc1)C(=O)O` had a melting point of 52 to 54 °C.

In the case of `CCOC(=O)c1sc(SCc2ccccc2)c2c1CC(C)(C)CC2=O`, the melting point lay in the range of 119 to 122 °C.

Consider `Cc1nc2ccc3ccccc3c2o1`, for which the melting point amounted to 37 °C.

`O=C(C1=NOC2C(=O)N(c3ccc(Br)cc3)C(=O)C12)c1ccco1` (stereo unspecified) yielded a melting point of 176 °C.

The compound `COC(=O)c1cscc1Sc1ccc(Cl)cc1` registered a melting point of 77 to 79 °C.

`CSc1nc2cc(NCc3ccc4c(c3)OCO4)ccc2[nH]1` registered a melting point of 146 to 148 °C.

In the case of `N#Cc1ccc([N+](=O)[O-])cc1C#N`, the melting point is 140 to 144 °C.

`CC1(C)CC(=O)C2=C(C1)Nc1c(ccc3ccccc13)C2c1ccc(Cl)cc1Cl` (stereo unspecified): the melting point was 222 °C.

On to `COc1ccc(OC)c(N=C=S)c1`, for which the melting point turned out to be 36 °C.

For `NNc1cc(Cl)c(C(F)(F)F)cc1[N+](=O)[O-]`, the melting point is 140 to 145 °C.

Take `CC1(C)CCC(=Cc2ccc(Cl)cc2)C1(O)Cn1cncn1` (stereo unspecified): the melting point amounted to 140 °C.

`Cn1c(=O)c(C2=NNC(=O)C2=Cc2c[nH]c3ccccc23)c(O)c2ccccc21` displayed a melting point of 297 °C.

Regarding `C=Cc1ccc(C=C)cc1`, the melting point turned out to be 31 °C.

`O=C(C1=NOC2C(=O)N(c3cccc([N+](=O)[O-])c3)C(=O)C12)c1cccs1` (stereo unspecified) returned a melting point of 164 °C.

With `NNC(=S)Nc1ccc(C(F)(F)F)cc1`, the melting point was determined as 167 °C.

The compound `CCCN(CCC)c1c([N+](=O)[O-])cc(C(F)(F)F)cc1[N+](=O)[O-]` displayed a melting point of 49 °C.

`COc1cc(N)c2ncccc2c1` had a melting point of 52 °C.

Take `COc1ccc(C=CNNc2nc(C)cc(C)n2)cc1`: the melting point fell in the range of 179 to 182 °C.

`CCOC(=O)c1cc2cc([N+](=O)[O-])ccc2[nH]1` yielded a melting point of 220 to 225 °C.

In turn, `O=C(O)c1ccnc(N2CCCC2)c1` gave a melting point of 211 to 212 °C.

On to `CC(=O)/N=c1\sc(C(C)=O)nn1-c1ccccc1[N+](=O)[O-]`, for which the melting point is 184 °C.

Compound `Cc1cncc(N2CCC(CO)CC2)n1` registered a melting point of 103 to 107 °C.

Compound `NC(=O)C(Br)(Br)C(N)=O` came in with a melting point of 205 °C.

Consider `CC(C=CC=C(C)C=CC1=C(C)C(=O)C(O)CC1(C)C)=CC=CC=C(C)C=CC=C(C)C=CC1=C(C)C(=O)C(O)CC1(C)C` (stereo unspecified), for which the melting point came to 182 °C.

`Cc1cccc(N/N=C(\C#N)c2nc(-c3ccc(Cl)cc3)cs2)c1C`: the melting point turned out to be 196 °C.

`O=C(O)c1c(Br)cc(Br)c(O)c1Br` had a melting point of 147 °C.

`CN1C(=O)CSC1=S`: the melting point fell in the range of 72 to 73 °C.

On to `CC1(C)CCCC(C)(C)N1`, for which the melting point was 28 °C.

On to `C1COCCOCCOCCOCCOCCN1`, for which the melting point worked out at 48 °C.

Turning to `COc1cc(Cl)nc(OC)n1`, the melting point fell in the range of 74 to 76 °C.

`COc1cc2c(c(OC)c1OC)-c1ccc(SC)c(=O)cc1C(NC(C)=O)CC2` (stereo unspecified) showed a melting point of 193 °C.

`CCNc1cc(=O)oc2ccccc12`: the melting point came to 150 °C.

The compound `Cc1ccc(Oc2ncccc2N)c2c1CCC2` displayed a melting point of 150 °C.

Take `OCc1ccc(-c2ccccn2)cc1`: the melting point lay within 49 to 51 °C.

`C#CCCCCCCCC#C` showed a melting point of -17 °C.

`FC(F)(F)c1cc2ccccc2cn1` showed a melting point of 31 °C.

The compound `c1cnc2cccnc2c1` returned a melting point of 75 °C.

In the case of `C=C(F)C(=O)O`, the melting point lay in the range of 51.5 to 52 °C.

Consider `CCOC(=O)c1sc(-c2ccc(N)cc2)nc1C`, for which the melting point stood at 128 °C.

For the compound `N#CCC(=O)c1cccc(C(F)(F)F)c1`, the melting point came to 61 °C.

`CC(=O)n1nc2oc3ccccc3cc-2c1=O`: the melting point stood at 170 °C.

Compound `CC(=O)Nc1ccc(I)cc1C(F)(F)F` came in with a melting point of 134 to 136 °C.

As to `CC1(C)C(C=C(Cl)Cl)C1C(=O)OCc1c(F)c(F)cc(F)c1F` (stereo unspecified), the melting point is 32 °C.

For `Cc1nc2sc3c(c2c(=O)n1NC(=O)c1ccccc1Cl)CCCC3`, the melting point was 244 to 246 °C.

The compound `O=C(O)c1cccc(-n2cccn2)c1` showed a melting point of 154 to 156 °C.

Compound `COC(=O)Cn1ccnc1[N+](=O)[O-]` gave a melting point of 96 °C.

`O=CC(C=O)c1ccc2ccccc2n1` showed a melting point of 198 to 202 °C.

For `O=C1COCC(=O)O1`, the melting point was in the range of 90 to 95 °C.

On to `O=C(CBr)c1ccc(C(F)(F)F)cc1`, for which the melting point lay in the range of 45 to 46 °C.

`Cc1nc(-c2ccc(C(F)(F)F)cc2)sc1CO` gave a melting point of 119 to 122 °C.

Compound `O=S(=O)(Cl)c1cc(OCC(F)(F)F)ccc1OCC(F)(F)F` displayed a melting point of 47 to 50 °C.

`O=S(=O)(O)CC(O)CNC(CO)(CO)CO` (stereo unspecified): the melting point was 220 to 221 °C.

With `Cc1cc2cc(Cl)ccc2[nH]1`, the melting point was in the range of 112 to 118 °C.

As for `CCOC(=O)C(C(C)=O)C(=O)c1ccc(C(=O)C(C(C)=O)C(=O)OCC)cc1` (stereo unspecified), the melting point was found to be 99 °C.

In turn, `CC1(C)C=Cc2c(ccc3c2OC2c4ccc(O)cc4OCC32)O1` (stereo unspecified) displayed a melting point of 178 °C.

On to `CCCC(=NOCC)C1=C(O)CC(C2CCCSC2)CC1=O` (stereo unspecified), for which the melting point turned out to be 37.1 °C.

Take `ON=Cc1c(Cl)cccc1Cl`: the melting point was found to be 149 °C.

Turning to `COC1=CC(c2ccccc2)c2ccccc21` (stereo unspecified), the melting point was 68 °C.

In turn, `CC(C)(C)OC(=O)NCc1ccc(C=O)cc1` returned a melting point of 83 to 84 °C.

Regarding `Cn1cc(Br)c(C(=O)Cl)n1`, the melting point lay in the range of 131 to 133 °C.

In turn, `O=c1cc(-c2ccc(F)cc2)oc(-c2ccc(F)cc2)c1` had a melting point of 168 to 169 °C.

Compound `O=CCCCC=O` came in with a melting point of -6 °C.

`O=c1[nH]c2ccccc2n1C1CCNCC1` came in with a melting point of 183 to 185 °C.

The compound `COc1ccc(C(=O)O)c(C(F)(F)F)c1` had a melting point of 149 °C.

`OCCCc1ccncc1` showed a melting point of 37 °C.

`O=c1c(O)c(-c2ccc(O)cc2)oc2cc(O)cc(O)c12` displayed a melting point of 277 °C.

Regarding `COc1ccc(CC2c3cc(OC)c(OC)cc3CCN2C)cc1O` (stereo unspecified), the melting point was 184 °C.

On to `CCOC(C/N=C/c1cccc(/C=N/CC(OCC)OCC)c1)OCC`, for which the melting point was determined as 61 °C.

`Cn1ccc(=O)c2ccccc21` had a melting point of 152 °C.

`Cc1ccc(C#N)c([N+](=O)[O-])c1` came in with a melting point of 97 °C.

In the case of `Cc1nc(-c2ccccc2)ncc1C(=O)NN`, the melting point lay in the range of 185 to 187 °C.

`CCCCCCCCCCCCCCCCOCCCCCCCCCCCCCCCC` had a melting point of 55 °C.

Regarding `COc1c(CC(O)C(C)C)c(=O)n(C)c2c(OC)cccc12` (stereo unspecified), the melting point turned out to be 86.5 °C.

Take `CC1=C(C(=O)Nc2ccccc2)SCCO1`: the melting point amounted to 91.5 °C.

As to `O=C(c1cccs1)c1coc(-c2ccc(Cl)cc2)c1S(=O)(=O)c1ccccc1`, the melting point is 115 °C.

The compound `O=C(O)c1ccccc1C(=O)c1ccc(F)cc1` gave a melting point of 140 to 141 °C.

With `CCOP(=O)(OCC)ON1C(=O)c2cccc3cccc(c23)C1=O`, the melting point worked out at 177 °C.

As for `COc1cc(C(=O)c2ccc(Cl)cc2)c([N+](=O)[O-])cc1OC`, the melting point came out at 142 °C.

In the case of `CCC(O)C(C)(C)C` (stereo unspecified), the melting point is -1.67 °C.

For the compound `COC(=O)[C@H](C)NC(=O)c1ccccc1`, the melting point was in the range of 61 to 63 °C.

Consider `N#CC(C#N)=c1c(F)c(F)c(=C(C#N)C#N)c(F)c1F`, for which the melting point came to 291 °C.

On to `CNC(=S)NCc1ccccc1`, for which the melting point is 75 °C.

In turn, `OCc1ccccc1COc1ccccc1` displayed a melting point of 50 to 51 °C.

Compound `Nc1ccc(S)cc1` returned a melting point of 46 °C.

For the compound `C=CCc1cc(C=O)c(O)c(OC)c1`, the melting point was in the range of 48 to 52 °C.

The compound `CC1(c2ccccc2)CCOCO1` (stereo unspecified) had a melting point of 37.5 °C.

The compound `FC(F)(F)CCl` returned a melting point of -106 °C.

`O=C(O)C=Cc1cccs1` displayed a melting point of 145 to 148 °C.

Regarding `OCCCC1CCCCC1`, the melting point was -60 °C.

`CC[C@H](C)[C@H](NC(=O)OC(C)(C)C)C(=O)O` yielded a melting point of 69 °C.

For the compound `CCCCN(CCCC)CCCC`, the melting point was -70 °C.

Compound `CCCN(CCC)c1c([N+](=O)[O-])cc(C)cc1[N+](=O)[O-]` yielded a melting point of 80 °C.

Turning to `Cc1c(F)cccc1[N+](=O)[O-]`, the melting point was found to be 7 °C.

`COc1ccc(S(N)(=O)=O)cc1` showed a melting point of 112 °C.

`FC(F)(F)c1cc(Cl)c2cc(CBr)ccc2n1` yielded a melting point of 119 to 123 °C.
